Source: patent US10597388B2, “Pyridazinone herbicides” (FMC CORPORATION, priority 2014, dated 2020)

Columns and labels:
Format in all cases: in vivo
[1] = system: oat, wild (wild oat, Avena fatua); assay: Test C greenhouse herbicide test, postemergence; conditions: Postemergence
Method in brief: (§1)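 Plants grown in potting mix of peat moss, vermiculite, wetting agent and starter nutrients were sprayed postemergence at 2 to 18 cm height (1- to 4-leaf stage). After 13 to 15 d in the greenhouse, injury was visually rated against untreated controls on a 0–100 scale (0 no effect, 100 complete control).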

kochia (Kochia scoparia) = assay: Test C greenhouse herbicide test, postemergence; conditions: Postemergence
Method in brief: as §1

soybean (Glycine max) = assay: Test C greenhouse herbicide test, pre- and postemergence
Method in brief: (§2)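 Visual ratings on a 0 to 100 scale (0 = no effect, 100 = complete control) versus untreated controls, scored 13–15 d after treatment. Soil-applied preemergence to seeded loam/sand; foliar postemergence to 1- to 4-leaf plants (2–18 cm) in peat-vermiculite mix; compounds formulated in solvent plus surfactant.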

[2] = system: morningglory (Ipomoea coccinea); assay: as above
Method in brief: as §2

[3] = system: waterhemp (common waterhemp, Amaranthus rudis); assay: as above
Method in brief: as §2

[4] = system: ragweed (common ragweed, Ambrosia elatior); assay: as above
Method in brief: as §2

[5] = system: wheat (winter wheat, Triticum aestivum); assay: as above
Method in brief: as §2

[6] = system: barnyardgrass (Echinochloa crus-galli); assay: as above
Method in brief: as §2

[7] = system: oilseed rape (Brassica napus); assay: as above
Method in brief: as §2

corn (Zea mays) = assay: as above
Method in brief: as §2

[8] = system: velvetleaf (Abutilon theophrasti); assay: as above
Method in brief: as §2

[9] = system: pigweed (Amaranthus retroflexus); assay: as above
Method in brief: as §2

[10] = system: blackgrass (Alopecurus myosuroides); assay: as above
Method in brief: as §2

[11] = system: crabgrass, large (large crabgrass, Digitaria sanguinalis); assay: as above
Method in brief: as §2

[12] = system: foxtail, giant (giant foxtail, Setaria faberii); assay: as above
Method in brief: as §2

[13] = system: johnsongrass (Sorghum halepense); assay: as above
Method in brief: as §2

[14] = system: galium (catchweed bedstraw, Galium aparine); assay: as above
Method in brief: as §2

[15] = 31 g ai/ha, scale 0 to 100 (0 no effect, 100 complete control)
[16] = 125 g ai/ha, scale 0 to 100, 0 is no effect, 100 is complete control
[17] = 250 g ai/ha, scale 0 to 100, 0 no effect, 100 complete control, 13 to 15 d
[18] = Postemergence, 31 g ai/ha, scale 0 to 100 (0 no effect, 100 complete control)
[19] = Postemergence, 125 g ai/ha, scale 0 to 100, 0 is no effect, 100 is complete control
[20] = Postemergence, 250 g ai/ha, scale 0 to 100, 0 no effect, 100 complete control, 13 to 15 d
[21] = Preemergence, 31 g ai/ha, scale 0 to 100, 0 is no effect, 100 is complete control
[22] = Preemergence, 62 g ai/ha, scale 0 to 100, 0 is no effect, 100 is complete control
[23] = Preemergence, 125 g ai/ha, scale 0 to 100, 0 is no effect, 100 is complete control
[24] = Preemergence, 250 g ai/ha, scale 0 to 100 (0 no effect, 100 complete control)
[25] = postemergence, 62 g ai/ha, scale 0 to 100, 0 no effect, 100 complete control

SMILES: Cc1nn(C)c(=O)c(-c2c(C)sc3ccc(Cl)cc23)c1O [Compound 104]
- Plant response rating, Oat, Wild [1, 15]: 80
- Plant response rating, Oat, Wild [1, 16]: 90
- Plant response rating, Oat, Wild [1, 17]: 90
- Plant response rating, Kochia (kochia (Kochia scoparia); [15]): 95
- Plant response rating, Kochia (kochia (Kochia scoparia); [16]): 95
- Plant response rating, Kochia (kochia (Kochia scoparia); [17]): 100
- Plant response rating, Soybean (soybean (Glycine max); [18]): 0
- Plant response rating, Soybean (soybean (Glycine max); [19]): 10
- Plant response rating, Soybean (soybean (Glycine max); [20]): 10
- Plant response rating, Soybean (soybean (Glycine max); [21]): 0
- Plant response rating, Soybean (soybean (Glycine max); [22]): 0
- Plant response rating, Soybean (soybean (Glycine max); [23]): 0
- Soybean plant response rating (soybean (Glycine max); [24]): 0
- Plant response rating, Morningglory [2, 18]: 98
- Plant response rating, Morningglory [2, 19]: 100
- Plant response rating, Morningglory [2, 20]: 100
- Plant response rating, Morningglory [2, 21]: 80
- Plant response rating, Morningglory [2, 22]: 95
- Plant response rating, Morningglory [2, 23]: 100
- Morningglory plant response rating [2, 24]: 98
- Plant response rating, Waterhemp [3, 18]: 70
- Plant response rating, Waterhemp [3, 19]: 100
- Plant response rating, Waterhemp [3, 20]: 95
- Plant response rating, Waterhemp [3, 21]: 75
- Plant response rating, Waterhemp [3, 22]: 90
- Plant response rating, Waterhemp [3, 23]: 100
- Waterhemp plant response rating [3, 24]: 100
- Plant response rating, Ragweed [4, 18]: 85
- Plant response rating, Ragweed [4, 19]: 98
- Plant response rating, Ragweed [4, 20]: 100
- Plant response rating, Ragweed [4, 21]: 85
- Plant response rating, Ragweed [4, 22]: 90
- Plant response rating, Ragweed [4, 23]: 95
- Ragweed plant response rating [4, 24]: 100
- Plant response rating, Wheat [5, 18]: 0
- Plant response rating, Wheat [5, 19]: 5
- Plant response rating, Wheat [5, 20]: 10
- Plant response rating, Wheat [5, 21]: 5
- Plant response rating, Wheat [5, 22]: 5
- Plant response rating, Wheat [5, 23]: 5
- Wheat plant response rating [5, 24]: 0
- Plant response rating, Barnyardgrass [6, 18]: 20
- Plant response rating, Barnyardgrass [6, 19]: 45
- Plant response rating, Barnyardgrass [6, 20]: 55
- Plant response rating, Barnyardgrass [6, 21]: 10
- Plant response rating, Barnyardgrass [6, 22]: 25
- Plant response rating, Barnyardgrass [6, 23]: 40
- Barnyardgrass plant response rating [6, 24]: 80
- Barnyardgrass plant response rating [6, 25]: 35
- Plant response rating, Oilseed Rape [7, 18]: 85
- Plant response rating, Oilseed Rape [7, 19]: 95
- Plant response rating, Oilseed Rape [7, 20]: 98
- Plant response rating, Oilseed Rape [7, 21]: 5
- Plant response rating, Oilseed Rape [7, 22]: 30
- Plant response rating, Oilseed Rape [7, 23]: 85
- Oilseed Rape plant response rating [7, 24]: 95
- Plant response rating, Corn (corn (Zea mays); [18]): 5
- Plant response rating, Corn (corn (Zea mays); [19]): 50
- Plant response rating, Corn (corn (Zea mays); [20]): 30
- Plant response rating, Corn (corn (Zea mays); [21]): 5
- Plant response rating, Corn (corn (Zea mays); [22]): 0
- Plant response rating, Corn (corn (Zea mays); [23]): 15
- Corn plant response rating (corn (Zea mays); [24]): 10
- Corn plant response rating (corn (Zea mays); [25]): 80
- Plant response rating, Velvetleaf [8, 18]: 50
- Plant response rating, Velvetleaf [8, 19]: 98
- Plant response rating, Velvetleaf [8, 20]: 90
- Plant response rating, Velvetleaf [8, 21]: 40
- Plant response rating, Velvetleaf [8, 22]: 80
- Plant response rating, Velvetleaf [8, 23]: 90
- Velvetleaf plant response rating [8, 24]: 90
- Plant response rating, Pigweed [9, 18]: 95
- Plant response rating, Pigweed [9, 19]: 100
- Plant response rating, Pigweed [9, 20]: 100
- Plant response rating, Pigweed [9, 21]: 100
- Plant response rating, Pigweed [9, 22]: 100
- Plant response rating, Pigweed [9, 23]: 100
- Pigweed plant response rating [9, 24]: 100
- Plant response rating, Blackgrass [10, 18]: 15
- Plant response rating, Blackgrass [10, 19]: 50
- Plant response rating, Blackgrass [10, 20]: 55
- Plant response rating, Blackgrass [10, 21]: 5
- Plant response rating, Blackgrass [10, 22]: 15
- Plant response rating, Blackgrass [10, 23]: 30
- Blackgrass plant response rating [10, 24]: 60
- Blackgrass plant response rating [10, 25]: 35
- Plant response rating, Crabgrass, Large [11, 18]: 20
- Plant response rating, Crabgrass, Large [11, 19]: 35
- Plant response rating, Crabgrass, Large [11, 20]: 55
- Plant response rating, Crabgrass, Large [11, 21]: 40
- Plant response rating, Crabgrass, Large [11, 22]: 55
- Plant response rating, Crabgrass, Large [11, 23]: 55
- Crabgrass, Large plant response rating [11, 24]: 60
- Crabgrass, Large plant response rating [11, 25]: 30
- Plant response rating, Foxtail, Giant [12, 18]: 50
- Plant response rating, Foxtail, Giant [12, 19]: 75
- Plant response rating, Foxtail, Giant [12, 20]: 85
- Plant response rating, Foxtail, Giant [12, 21]: 75
- Plant response rating, Foxtail, Giant [12, 22]: 85
- Plant response rating, Foxtail, Giant [12, 23]: 75
- Foxtail, Giant plant response rating [12, 24]: 100
- Plant response rating, Johnsongrass [13, 18]: 10
- Plant response rating, Johnsongrass [13, 19]: 5
- Plant response rating, Johnsongrass [13, 20]: 5
- Plant response rating, Johnsongrass [13, 21]: 10
- Plant response rating, Johnsongrass [13, 22]: 20
- Plant response rating, Johnsongrass [13, 23]: 20
- Johnsongrass plant response rating [13, 24]: 30
- Plant response rating, Galium [14, 18]: 95
- Plant response rating, Galium [14, 19]: 98
- Plant response rating, Galium [14, 20]: 98
- Plant response rating, Galium [14, 21]: 90
- Plant response rating, Galium [14, 22]: 85
- Plant response rating, Galium [14, 23]: 90
- Galium plant response rating [14, 24]: 98
